The text below walks through data of article PMC4171606, “A novel copper(I) complex induces ER-stress-mediated apoptosis and sensitizes B-acute lymphoblastic leukemia cells to chemotherapeutic agents” (Oncotarget, 2014).

In general, GI50 refers to the concentration giving 50% growth inhibition.

The subject of assay [1] is RS4;11 and SEM cells. Kind of assay: MTT viability with CP in presence of pan-caspase inhibitor, 48 h. Type of assay: cell-based, human. As to conditions: z-VAD.fmk 100 μM with CP 2.5 μM and 5 μM. As for the experimental part:
FIGURE 2 CP induces caspase-dependent apoptosis without mitochondria involvement (A) Assessment of mitochondrial membrane potential (ΔΨmt) after treatment of RS4;11 and SEM cells with CP (2.5 μM) for the indicated times. Cells were stained with the fluorescent probe JC-1. Data are represented as mean ± S.E.M. of three independent experiments. (B) Flow cytometric analysis of RS4;11 and SEM cells treated with CP (2.5 μM) for 24 h showing cytochrome c labeled with a monoclonal antibody conjugated to FITC. Representative image of three experiments with similar results. (C) Cells were incubated with CP 2.5 μM and 5 μM in the presence or absence of the pan-caspase inhibitor z-VAD.fmk (100 μM). Cell viability was determined after 48 h by MTT assay. Data are represented as mean ± S.E.M. of three independent experiments performed in triplicate. *p<0.01 vs CP alone. (D) Western blot analysis of Bcl-2, cleaved caspase-12, caspase-9, cleaved caspase-7, caspase-3 and PARP after treatment of SEM and RS4;11 cells with CP (2.5 μM) for the indicated times. To confirm equal protein loading, each membrane was stripped and reprobed with anti-β-actin antibody.
We therefore evaluated whether the inhibition of caspases with the pan-caspase inhibitor z-VAD.fmk would prevent cell death.

For assay [2], the system named is SEM cells. The experiment in a line: Combined drugs analysis, MTT 48 h, Chou and Talalay. Type of assay: cell-based. Particulars: Homo sapiens. As for the experimental part: (§1) SEM and RS4;11 cell lines were exposed to dexamethasone (Dex), daunorubicine (Dauno), cytarabine (Ara-C) and vincristine (Vcr) in the presence or absence of CP, at fixed combination ratios.
(§2) To test potential synergistic, additive, or antagonistic effects of the combination of CP and drugs commonly used in B-ALL treatment, we performed MTT experiments as follows.
(§3) SEM, and RS4;11 cells were treated for 48 hours with one of the most used chemotherapeutic agents: cytarabine (Aractyn, Pfizer), daunorubicin (Pfizer), vincristine (Pfizer), or dexamethasone (Sigma-Aldrich). CP was also added to each drug solution, at fixed combination ratios. Cell viability was determined after 48 hours of treatment by MTT test as described above. To determine the synergistic, additive, or antagonistic effects of the drug combinations, we used CalcuSyn software (version 2.0, Biosoft, Cambridge, United Kingdom) based on the method of the combination index (CI) described by Chou and Talalay. Synergy, additivity and antagonism were defined by a CI<1, CI=1, or CI>1, respectively.

Assay [3] concerns RS4;11 cells. Described as above. Type of assay: cell-based. Particulars: Homo sapiens. As for the experimental part:
as §1, §2, §3

Assay [4] deals with RS4;11 and SEM cells. The experiment in a line: Annexin-V/PI assay with CP in presence of cycloheximide, 12 h. Type of assay: cell-based, human. Particulars: CHX 2 μg/ml with CP 2.5 μM. As for the experimental part: To investigate if proteasome inhibition and ER stress could be responsible for CP-induced cell death, we assayed apoptosis and ER stress markers in the presence of cycloheximide (CHX), an inhibitor of protein synthesis that antagonizes ER-stress agents. The inhibition of protein synthesis reduced the accumulation of unfolded proteins in the ER and therefore ER-stress induced apoptosis.
Furthermore, CHX induced a remarkable reduction of GRP78 and CHOP expression, induced after 12 h of treatment with CP, when CHOP and GRP78 were highly expressed (Figure 5, panel C).
FIGURE 5 CP induces ER stress mediated apoptosis SEM (A) and RS4;11 (B) cells were incubated with CP (2.5 μM) in the presence or absence of cycloheximide (CHX) for 12 h, at the concentration of 2 μg/ml. Cells were analyzed by flow cytometry after double staining with Annexin-V-FITC and PI. Data are represented as mean ± S.E.M of three independent experiments. *p<0.05. (B) Western blot analysis showing the expression of GRP78 and CHOP after treatment of RS4;11 and SEM cells with CP (2.5 μM) for 12 h in the presence or absence of CHX (2 μg/ml).

In assay [5] the test system is human leukemia cell lines. The experiment in a line: MTT growth inhibition, panel of twelve leukemia cell lines, 72 h. Type of assay: cell-based. Particulars: all cell lines, same experimental conditions as CP, data not shown. As for the experimental part:
[Cu(thp)4][PF6] (CP) was evaluated for its growth inhibition activity on a panel of twelve different human leukemia cell lines (five B-acute lymphoblastic leukemia, three T-acute lymphoblastic leukemia, three acute myeloid leukemia and one chronic myeloid leukemia). Cells were treated for 72 h with CP and cell viability was evaluated by MTT test. […] This abnormal high expression of proteasomal proteins and mRNA seem to be correlated to the hyperproliferation of these cancer cells and to the sensitivity towards proteasome inhibitors.
The human leukemia cell lines RS 4;11, SEM, REH, RCH-ACV, MHH-CALL2, Jurkat, CCRF-CEM, HSB2, HL-60, K562, THP-1, MV4;11 were purchased from the American Type Culture Collection. Cells were cultured in RPMI 1640 (Life Technologies, Italy) supplemented with 10% fetal bovine serum (FBS), glutamine (2 mM; Life Technologies, Italy), penicillin (100 U/ml; Life Technologies, Italy) and streptomycin (100 μg/ml; Life Technologies, Italy), and maintained at 37°C in a humidified atmosphere with 5% CO2. The cytotoxic activity of CP was determined using a standard 3-[4,5-dimethylthiazol-2-yl]-2,5-diphenyltetrazodium bromide (MTT) based colorimetric assay (Sigma-Aldrich, Italy). Briefly, cells were seeded at a density of 2×10^4 cells/well in 96-well microtiter plates. After 24 h, cells were exposed to the test compound. After different times, cell survival was determined by the addition of an MTT solution as previously described.

Setting [6] is: SEM, MTT, drug alone or with CP at fixed molar ratio, mean ± SE, read-out: GI50.
Setting [7] is: RS4;11, 48 h, MTT, drug alone or with CP at fixed molar ratio, mean ± SE, read-out: GI50.

Like-named read-outs stand apart in the source and are kept apart here. Bounds are passed on as bounds.

Turning to `CC(C)[C@H](NC(=O)OCc1ccccc1)C(=O)N[C@@H](C)C(=O)NC(CC(=O)O)C(=O)CF` (mixture of isomers) [z-VAD.fmk, N-[(benzyloxy)carbonyl]-L-Val-Ala-DL-Asp-fluoromethylketone], the “cell viability of CP-treated cells” value in assay [1] is “significantly increased cell viability”.
On to `Nc1ccn([C@@H]2O[C@H](CO)[C@@H](O)[C@@H]2O)c(=O)n1` [AraC, cytarabine], for which the values for the GI50 in assay [2] (setting [6]) and in assay [3] (setting [7]) were 22.3 ± 1.8 nM and 21 ± 7.1 nM, respectively.
For `C[C@@H]1C[C@@H]([C@H](O)CC2CC(=O)NC(=O)C2)C(=O)[C@@H](C)C1` [CHX, cycloheximide], the “protection from CP induced cell death” value in assay [4] is on record as “significant protection from CP induced cell death”.
In the case of `[Cl][Cu][Cl]` [CuCl2], the “concentration giving only a slight reduction of cell viability” value in assay [5] was more than 250 µM.
For `[Cl][Cu]` [CuCl], the “concentration giving only a slight reduction of cell viability” value in assay [5] was more than 250 µM.
As to `COc1cccc2c1C(=O)c1c(O)c3c(c(O)c1C2=O)C[C@@](O)(C(C)=O)C[C@@H]3O[C@H]1C[C@H](N)[C@H](O)[C@H](C)O1` [Dauno, daunorubicin], the GI50 in assay [2] was determined as 96 ± 14.1 nM; in assay [3] (RS4-11, 48 h), 19.2 ± 1.9 nM.
For the compound `C[C@@H]1C[C@H]2[C@@H]3CCC4=CC(=O)C=C[C@]4(C)[C@@]3(F)[C@@H](O)C[C@]2(C)[C@@]1(O)C(=O)CO` [Dex, dexamethasone], the GI50 was 643 ± 44.2 nM in assay [2] (setting [6]) and 0.12 ± 0.025 nM in assay [3] (setting [7]).
For the compound `CC[C@]1(O)C[C@H]2CN(CCc3c([nH]c4ccccc34)[C@@](C(=O)OC)(c3cc4c(cc3OC)N(C=O)[C@H]3[C@@](O)(C(=O)OC)[C@H](OC(C)=O)[C@]5(CC)C=CCN6CC[C@]43[C@@H]65)C2)C1` [Vcr, vincristine], the GI50 in assay [2] (setting [6]) came out at 13.1 ± 1.2 nM; in assay [3] (setting [7]) it was 0.071 ± 0.042 nM.
